Results taken from patent US12708676B2, “Phosphate compounds for detecting neurological disorders” (Amydis, Inc., priority 2018, dated 2026).
Values after ≈ are worked out from the molar mass of the structure shown. Like-named read-outs stand apart in the source and are kept apart here.

What was measured:
[1] = Rabbit pharmacokinetics of Compound 9, Study 2 (retina, brain, blood/plasma); format: in vivo
Procedure: (§1) Compound 9 was injected into rabbits as a solution in 0.1 M phosphate buffer, pH 7.4 such that rabbits received either 30 mg of Compound 9 (Study 1) or 28 mg of Compound 9 (Study 2). The purpose of these studies was to confirm that Compound 9 could easily be converted into Compound 7 in vivo.
Study 2: The purpose of this study was to determine if higher concentrations of Compound 9 and/or Compound 7 was present at earlier time points in the tissues specified. Rabbits received a 1.4 mL injection of a 20 mg/mL solution of Compound 9 in 0.1 M phosphate buffer, pH 7.4. Blood was collected from rabbits (N=6) two minutes after receiving Compound 9 to determine the blood concentration at this time point (Table 8). Rabbits were then sacrificed at the specified time points (N=3 per time point) in the tables below and the average concentrations of Compound 9 and Compound 7 were determined in the retina (Table 6), brain (Table 7) and blood (Table 8).

[2] = test system: hyperphosphorylated three repeat tau protein; experiment: Example 3: retinal fluorescent imaging of model mice after intravenous Compound 9; design: species or system mouse; conditions: Compound 9 intravenously, retinas imaged ex vivo, example in present tense
Procedure: Model mice having a detectable target protein, for example, an amyloid beta protein, or a phosphorylated tau protein, or an accumulated mass thereof, are administered Compound 9 intravenously. Retinas of the mice are removed and are mounted on slides. The retinas are washed with PBS 2 times for 5 minutes. A solution of 98% formic acid is added—5 minutes for antigen retrieval. The sampled are washed with distilled water—2 times for 5 minutes. The samples are equilibrated in 1×PBS for 15 minutes, then blocked with 10% goat/donkey serum in 1× PB ST (depending on antibodies) for 1 hour. Samples are covered in foil, and washed with 1× PBS 3 times for 5 minutes each. Samples are stained with DAPI (300 nM or 100 ng/mL) in dark for 10 minutes, then tissues are washed 3×10 minutes with PBS. Antifade DAKO mounting medium is added, and coverslip and kept under foil until imaging.
Fluorescent imaging study of the samples is conducted on a Leica DMI 4000B microscope (Leica, Germany) equipped with a TCS SPE camera and Leica 10, 20 and 40× objectives. The following lasers are used to visualize fluorescent probes pertaining to DAPI (blue, nuclear stain), Compound 7 (green) and hyperphosphorylated tau (red): 408, 488 and 568 nm. Z-stacked images are taken at 40× at 0.5 μm increments to visualize the entire thickness of the tissue.

[3] = test system: Aβ; experiment: Example 4: detection of Aβ in the retina of a TBI (blast) mouse model; format: in vivo; conditions: blast model mice 24 hours after injury, Compound 9 intravenously; example in present tense
Procedure: This example is conducted to determine whether Compound 9 detects Aβ in the retina of a TBI mouse model.
Blast model mice 24 hours after injury and a non-injured mouse are administered Compound 9 intravenously. Mice retinas are scanned by scanning laser ophthalmoscopy (SLO).
Alternatively, or in addition to retinal scanning, retinal tissues are removed and stained with an anti-Aβ antibody (6E10).

[4] = Rabbit pharmacokinetics of Compound 9, Study 1 (retina, brain, blood); format: in vivo; conditions: other: injection (site not specified), Study 1, 30 mg Compound 9 injected
Procedure: as §1
Study 1: Rabbits received a 1.5 mL injection of a 20 mg/mL solution of Compound 9 in 0.1 M phosphate buffer, pH 7.4. Rabbits were sacrificed at the specified time points (N=3 per time point) in the tables below and the average concentration of Compound 9 and Compound 7 was determined in the retina (Table 3), brain (Table 4) and blood (Table 5).

[5] = Solubility of Compound 9 / phosphate prodrugs; format: physicochemical; conditions: aqueous buffer; phosphate buffer at pH 7.4
Source text: Due to the poor water solubility and the large particle size of compounds such as Compound 7, prodrug derivatives of these compounds were investigated.

N#C/C(=C\c1ccc2cc(N3CCCCC3)ccc2c1)C(=O)NCCOCCOCCOP(=O)(O)O [Compound 9]
concentration at 5 min ([1]; brain, other: injection (site or type of injection not stated), rabbit, Study 2, 28 mg Compound 9 injected, 5 min, read-out: Avg Conc., brain): 7.2 ± 2.62 ng/g
concentration at 10 min ([1]; brain, other: injection (site or type of injection not stated), rabbit, Study 2, 28 mg Compound 9 injected, read-out: Avg Conc., brain): 2.23 ± 0.426 ng/g
Kp ([1]; brain, rabbit, after injection of Compound 9): < 0.001
Conversion of Compound 9 to Compound 7 in vivo ([1]; healthy rabbit model): rapidly converted to Compound 7
concentration at 2 min ([1]; plasma, other: injection (site not specified), rabbit, Study 2, 28 mg Compound 9 injected, 2 min, read-out: Avg Conc., plasma): 67600 ± 18800 ng/mL
concentration at 5 min ([1]; plasma, other: injection (site not specified), rabbit, Study 2, 28 mg Compound 9 injected, 5 min, read-out: Avg Conc., plasma): 40000 ± 11800 ng/mL
concentration at 10 min ([1]; plasma, other: injection (site not specified), rabbit, Study 2, 28 mg Compound 9 injected, read-out: Avg Conc., plasma): 8860 ± 1310 ng/mL
Avg Conc., retina ([1]; rabbit, Study 2, 28 mg Compound 9 injected, 5 min): remained undetectable
Adverse reactions ([1]; rabbits, during the time course of the study): no adverse reactions were noted
Detection of hyperphosphorylated three repeat tau protein in the retina [2]: detected in the retina, producing a detectable fluorescent signal
Scanning laser ophthalmoscopy image of retina [3]: showing the presence of Aβ plaques
concentration at 15 min ([4]; blood, read-out: Avg Conc., blood): 5440 ± 767 ng/mL
concentration at 30 min ([4]; blood, 30 min, read-out: Avg Conc., blood): 374 ± 301 ng/mL
concentration at 60 min ([4]; blood, 60 min, read-out: Avg Conc., blood): 24.9 ± 31.8 ng/mL
concentration at 15 min ([4]; brain, read-out: Avg Conc., brain): 0.439 ng/g
solubility [5]: 20 to 30 mg/mL (≈ 38.6 to 58 mM)
